This is an account of results in paper PMC5643073 (ACS combinatorial science, 2017).

A short description of one data set: in vitro. The conditions noted are these: human.
A short description of another data set: Cytotoxicity assay. The settings on record: human, HEK293T cells.

In “in vitro”, `Cc1cc(SCc2sc(-c3ccc(C(F)(F)F)cc3)nc2C)ccc1OCC(=O)O` [Compound 13] came in with a CC50 at 18 h of more than 33 µM.

`Cc1cc(SCc2sc(-c3ccc(C(F)(F)F)c(F)c3)nc2C)ccc1OCC(=O)O` [Compound 31] returned a CC50 at 18 h in the data set “Cytotoxicity assay” of more than 50 µM.
